According to patent US20060189551A1 (priority 2004, published 2006):

Key:
[1] = molecular target: aspartokinase (Saccharomyces cerevisiae, UniProt P10869, E282D); settings: 5 mM threonine
Experimental: (§1) Aspartokinase (AK) activity in partially purified extracts obtained from the strains described in FIG. 8A was assayed in the presence or absence of threonine (1 or 5 mM).
(§2) AK activity was measured with an enzymatic assay that couples ADP formation with NADH depletion, using pyruvate kinase/lactate dehydrogenase system.
(§3) Aspartokinase activity was assayed in the presence and absence of threonine from wild-type and fpr1, hom6 or HOM3-R7 feedback-resistant mutant cells.

[2] = molecular target: T1, aspartokinase (Saccharomyces cerevisiae, UniProt P10869)
T1 sequence (P10869 1-527): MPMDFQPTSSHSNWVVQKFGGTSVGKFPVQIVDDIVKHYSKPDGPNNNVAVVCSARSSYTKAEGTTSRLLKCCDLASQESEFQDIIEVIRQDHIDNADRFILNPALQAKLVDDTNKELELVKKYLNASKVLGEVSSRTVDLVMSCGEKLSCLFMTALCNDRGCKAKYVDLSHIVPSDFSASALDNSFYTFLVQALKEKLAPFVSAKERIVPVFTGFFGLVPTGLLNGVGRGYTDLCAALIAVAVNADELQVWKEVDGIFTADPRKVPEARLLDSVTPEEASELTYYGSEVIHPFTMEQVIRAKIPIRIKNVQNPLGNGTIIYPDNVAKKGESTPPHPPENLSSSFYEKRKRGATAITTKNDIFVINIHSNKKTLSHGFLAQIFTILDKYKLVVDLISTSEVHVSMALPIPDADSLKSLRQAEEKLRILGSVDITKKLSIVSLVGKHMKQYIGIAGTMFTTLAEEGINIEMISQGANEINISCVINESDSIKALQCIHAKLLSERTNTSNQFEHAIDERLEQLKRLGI
Experimental: as §1, §2, §3

[3] = test system: FKBP12-aspartokinase interaction; settings: 1 g of L-threonine/liter in culture medium (YNB+Thr)
Experimental: (§4) Transformants from yeast two-hybrid host strain PJ69-4A coexpressing Ga14 DNA-binding domain (BD) fusion proteins from plasmid pGBT9-Fpr1 (BD-Fpr1), pGBT9-AK (BD-AK), or pGBT9-AK(E282D) (BD-AD^E282D) and Ga14 activation domain (AD) fusion proteins from plasmids pGAD424-AK (AD-AK) or pGAD424-AK(E282D) (AD-AK^E212D) were grown in SD medium supplemented with uracil, adenine, methionine, and histidine (YNB) or in the same medium plus 1 g of L-threonine/liter (YNB+Thr) or 10 μg of FK506/mL (YNB+FK506), and induction of the lacZ reporter gene was quantified by assaying beta-galactosidase activity. PJ69-4A cotransformed with vectors pGBT9 (BD) and pGAD424 (AD) was assayed as a control.
(§5) Yeast two-hybrid host strain PJ69-4A was cotransformed with plasmids expressing the Ga14 DNA binding-domain (BD) and Ga14 activation domain (AD) fusion proteins. The transformants were grown in Siluid SD medium supplemented with adenine, uracil, methionine, and histidine or in the same medium with the 1 g of L-threonine/liter or with 10 mg of FK506/liter, and induction of the lacZ reporter gene was measured as beta-galactosidase activity as disclosed in Cardenas et al., EMBO J., 14, 5892-5907. […]

[4] = molecular target: FKBP12-aspartokinase interaction (Saccharomyces cerevisiae, UniProt P10869); settings: 30 mM L-threonine added to binding reaction
Chain of FKBP12-aspartokinase interaction (Saccharomyces cerevisiae, UniProt P10869) (P20081 2-114, one chain of several): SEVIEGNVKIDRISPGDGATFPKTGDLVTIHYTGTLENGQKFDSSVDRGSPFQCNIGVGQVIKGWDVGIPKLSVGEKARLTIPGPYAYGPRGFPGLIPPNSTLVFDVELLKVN
Experimental: (§6) FKBP12-aspartokinase (AK) and AK-AK interaction by in vitro affinity chromatography. Crude protein extracts obtained from a wild-type strain (BY4741) or from a strain expressing the HOM3-R7 mutant allele (MAY315) were incubated with His6-tagged yeast FKPB12 coupled to agarose beads in the presence or absence of 30 mM L-threonine. Bound proteins were eluted and analyzed by Western blotting with antibodies against yeast aspartokinase. Binding reactions wit agarose beads alone were included as controls.

[5] = molecular target: FKBP12-aspartokinase interaction (Saccharomyces cerevisiae, UniProt P10869, E282D); settings: 30 mM L-threonine added to binding reaction
Chain of FKBP12-aspartokinase interaction (Saccharomyces cerevisiae, UniProt P10869, E282D) (P20081 2-114): as the sequence (P20081 2-114, one chain of several) above
Chain of FKBP12-aspartokinase interaction (Saccharomyces cerevisiae, UniProt P10869, E282D) (P10869 whole entry E282D): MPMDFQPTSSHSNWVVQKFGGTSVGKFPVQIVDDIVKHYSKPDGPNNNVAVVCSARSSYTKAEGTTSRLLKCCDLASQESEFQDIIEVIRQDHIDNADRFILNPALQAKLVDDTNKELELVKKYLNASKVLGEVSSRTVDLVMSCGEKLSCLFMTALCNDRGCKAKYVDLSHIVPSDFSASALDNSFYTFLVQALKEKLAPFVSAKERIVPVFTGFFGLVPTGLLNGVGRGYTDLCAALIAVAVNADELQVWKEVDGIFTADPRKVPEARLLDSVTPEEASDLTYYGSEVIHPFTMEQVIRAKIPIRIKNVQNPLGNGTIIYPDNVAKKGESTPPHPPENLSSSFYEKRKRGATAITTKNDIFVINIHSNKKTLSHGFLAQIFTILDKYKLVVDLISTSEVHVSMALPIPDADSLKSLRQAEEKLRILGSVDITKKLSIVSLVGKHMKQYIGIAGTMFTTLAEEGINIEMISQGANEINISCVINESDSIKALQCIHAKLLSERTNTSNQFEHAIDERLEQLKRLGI
Experimental: as §6

[6] = molecular target: FKBP12-aspartokinase interaction (Saccharomyces cerevisiae, UniProt P20081)
Chain of FKBP12-aspartokinase interaction (Saccharomyces cerevisiae, UniProt P20081) (P20081 2-114): as the sequence (P20081 2-114, one chain of several) above
Experimental: as §4, §5

Chain of aspartokinase (Saccharomyces cerevisiae, UniProt P10869, E282D) (P10869 whole entry E282D): as the sequence (P10869 whole entry E282D) above

Row | SMILES | activity of feedback-resistant aspartokinase (HOM3-R7) [1] | aspartokinase activity from wild-type and fpr1Δ strains ([2]; 1 mM threonine) | aspartokinase activity (feedback inhibition) ([2]; 5 mM threonine) | aspartokinase activity of the hom6Δ mutant ([2]; threonine 1 or 5 mM) | FKBP12-AK and FKBP12-AK^E282D binding [3] | FKBP12 interaction with wild-type aspartokinase [4] | FKBP12 interaction with feedback resistant aspartokinase (HOM3-R7) [5] | FKBP12-aspartokinase binding in the presence of FK506 [6]
1 | C[C@@H](O)[C@H](N)C(=O)O [threonine, L-threonine] | no inhibition | inhibited to comparable levels | completely feedback inhibited | inhibited | increased | increased | not with feedback resistant aspartokinase | 
2 | C=CC[C@@H]1/C=C(\C)C[C@H](C)C[C@H](OC)[C@H]2O[C@@](O)(C(=O)C(=O)N3CCCC[C@H]3C(=O)O[C@H](/C(C)=C/[C@@H]3CC[C@@H](O)[C@H](OC)C3)[C@H](C)[C@@H](O)CC1=O)[C@H](C)C[C@@H]2OC (relative stereo) [FK506, [3S-[3R*[E(1S*,3S*,4S*)],4S*,5R*,8S*,9E,12R*,14R*,15S*,16R*,18S*,19S*,26aR*]]-5,6,8,11,12,13,14,15,16,17,18,19,24,25,26,26a-hexadecahydro-5,19-dihydroxy-3-[2-(4-hydroxy-3-methoxycyclohexyl)-1-methylethenyl]-14,16-dimethoxy-4,10,12,18-tetramethyl-8-(2-propenyl)-15,19-epoxy-3H-pyrido[2,1-c][1,4]oxaazacyclotricosine-1,7,20,21(4H,23H)-tetrone, reference compound] |  |  |  |  |  |  |  | nearly abolished
